Measurements published in PubChem BioAssay (NCI).
Values joined by “and” are separate entries in the source; they are usually repeats but may differ in a detail not shown here. Equal values may be shown once.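 96-well plates; 48 h exposure; 5 concentrations. Endpoints by linear interpolation between flanking doses. Not reached: highest tested concentration assigned. GI50 is the concentration that inhibits growth by half. TGI is the concentration that stops growth completely.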

Legend:
Experiment in all cases: NCI tumour cell line growth inhibition, 48 h
IGROV1 ovarian = system: IGROV1 ovarian
OVCAR-3 ovarian = system: OVCAR-3 ovarian
ACHN renal = system: ACHN renal
OVCAR-8 ovarian = system: OVCAR-8 ovarian
A549 NSCLC = system: A549 NSCLC
NCI-H460 lung = system: NCI-H460 lung
OVCAR-4 ovarian = system: OVCAR-4 ovarian
HOP-92 NSCLC = system: HOP-92 NSCLC
NCI/ADR-RES ovarian = system: NCI/ADR-RES ovarian
SK-MEL-2 melanoma = system: SK-MEL-2 melanoma

Row | SMILES | GI50 (IGROV1 ovarian) [µM] | TGI (IGROV1 ovarian) | GI50 (OVCAR-3 ovarian) | TGI (OVCAR-3 ovarian) | GI50 (ACHN renal) [µM] | TGI (ACHN renal) [µM] | GI50 (OVCAR-8 ovarian) [µM] | TGI (OVCAR-8 ovarian) | GI50 (A549 NSCLC) [µM] | TGI (A549 NSCLC) | GI50 (NCI-H460 lung) | TGI (NCI-H460 lung) | GI50 (OVCAR-4 ovarian) [µM] | TGI (OVCAR-4 ovarian) | GI50 (HOP-92 NSCLC) [µM] | TGI (HOP-92 NSCLC) | GI50 (NCI/ADR-RES ovarian) [µM] | TGI (NCI/ADR-RES ovarian) | GI50 (SK-MEL-2 melanoma) [µM] | TGI (SK-MEL-2 melanoma)
1 | CC(=O)NC(CCc1ccc(Cl)c(Cl)c1)c1cccc(O)c(=O)c1 (centres undefined) | 0.539 | 3.33 µM | 0.358 µM | 14.7 µM | 0.286 | 31.6 | 0.346 | 13.1 µM | 0.527 | 11.5 µM | 0.407 µM | 11.8 µM | 0.302 | 40.4 µM | 1.93 | 15.7 µM | 0.338 | 4.92 µM | 2.8 | 17.1 µM
2 | Cc1cc(NS(=O)(=O)c2ccc(-c3cnc(C4CC4)o3)cc2)ccc1Cl | 0.335 | 13 µM | 0.0745 µM | 11.4 µM | 0.586 | 14.6 | 0.552 | 17.7 µM | 0.437 | 14.9 µM | 0.297 µM | 11.1 µM | 1.86 | 19.5 µM | 0.472 | 10.1 µM | 0.181 | 12.5 µM | 0.445 | 20.3 µM
3 | COc1cc(C(=O)/C=C/c2cccnc2Nc2ccc(Cl)cc2)cc(OC)c1OC | 2.24 | 4.78 µM | 1.31 µM | 2.62 µM | 1.77 | 3.18 | 1.63 | 4.31 µM | 1.63 | 3.6 µM | 1.92 µM | 3.88 µM | 1.51 | 2.98 µM | 0.519 | 2.14 µM | 1.64 | 4.4 µM | 2.01 | 4.11 µM
4 | Cc1ncnc2c1ccn2[C@@H]1C[C@H](Oc2cc(C(F)F)c(F)c3c2CNCC3)[C@@H](O)[C@H]1O | > 100 | > 100 µM | > 100 µM | > 100 µM | > 100 | > 100 | > 100 | > 100 µM | > 100 | > 100 µM | > 100 µM | > 100 µM | > 100 | > 100 µM | 4.68 | > 100 µM | > 100 | > 100 µM | > 100 | > 100 µM
5 | Cc1c(Br)c(Br)c2c3c1nc(N1CCNCC1)n3CCC2 | 1.41 | 3.12 µM | 1.56 µM | 3.01 µM | 1.39 | 2.71 | 2.08 | 5.46 µM | 1.87 | 4.01 µM | 1.7 µM | 3.22 µM | 2.46 | 6.1 µM | 0.0744 | 1.12 µM | 1.8 | 3.82 µM | 1.95 | 4.06 µM
6 | CCN1C[C@@H](C)n2c(c(O)c3c(=O)n(Cc4ccc(F)c(Cl)c4)nc(C(=O)NC)c32)C1=O | 3.74 | > 100 µM | – | – | 2.85 | 8.87 | 3.34 | > 100 µM | 3.14 | > 100 µM | 3.15 µM | 10.7 µM | 3.18 | 44.6 µM | 1.7 | 4.91 µM | 1.62 | 7.79 µM | 2.11 | 4.53 µM
7 | COc1cc2c3c(n(CCCNCCCCN)c(=O)c2cc1OC)-c1cc2c(cc1C3=O)OCO2 | > 21.2 | > 100 µM | 2.77 µM | 14.1 µM | 0.163 | 16.6 | 1.91 | 8.6 µM | 5.48 | 25 µM | < 0.041 µM | 7.38 µM | 7.31 | 29.9 µM | 0.738 | 3.8 µM | 17.3 | > 90.8 µM | 4.86 | 16.4 µM
8 | N=C1C(c2nc3ccccc3c(=O)[nH]2)=C(O)CN1c1cccc(Cl)c1 | 37.6 | > 100 µM | 2.15 µM | 5.06 µM | 3.4 | > 100 | 5.35 | > 100 µM | 5.36 | > 100 µM | 3.72 µM | > 85.6 µM | > 23 | > 100 µM | > 100 | > 100 µM | 3.16 | > 100 µM | > 100 | > 100 µM
9 | COc1ccc(/C=C/C(=O)OC2CC34CCNC35CC(OC5(OC)C2OC)c2ccc(OC)c(O)c24)cc1O (centres undefined) | – | > 100 µM | 35.5 µM and > 100 µM | > 100 µM | – | > 100 | – | > 100 µM | – | > 100 µM | – | > 100 µM | – | > 100 µM | – | > 100 µM | – | > 100 µM | – | > 100 µM
10 | O=C(Nc1nc2ccc(OC(F)(F)F)cc2s1)c1ccc(F)cc1 | 3.89 | > 100 µM | 2.22 µM | 7.2 µM | 2.4 | 6.18 | 4.22 | > 100 µM | 3.51 | > 100 µM | 3.02 µM | 20.7 µM | 2.95 | > 100 µM | 3.91 | 8.35 µM | 3.35 | 16.4 µM | 3.08 | 7.39 µM
11 | CC[C@@]1(O)C(=O)OCc2c1cc1n(c2=O)Cc2cc3cc(O)ccc3nc2-1 | 0.238 | 22.8 µM and 2.67 µM | 0.069 µM and 0.0368 µM | 0.301 µM and 0.228 µM | – | 0.457 | – | 2.47 µM and 0.477 µM | 0.0813 | 3.93 µM and 2.32 µM | 0.0172 µM and < 0.0104 µM | 0.112 µM and 1.07 µM | 0.224 | 0.441 µM and 3.17 µM | 0.0239 | 0.107 µM and 0.513 µM | – | 0.225 µM and 0.109 µM | 0.174 | 2.15 µM and 1.2 µM
12 | COc1ccc(/C=C/C(=O)C(=O)/C=C/c2ccc(OC)c(OC)c2)cc1OC | – | – | 2.84 µM | 9.9 µM | 2.05 | 5.4 | 2.97 | > 100 µM | > 100 | > 100 µM | 3.06 µM | 11.2 µM | 4.07 | > 100 µM | 15.1 | 82.8 µM | 4.2 | > 100 µM | 30.6 | > 100 µM
